Activity calls are given as the source filed them. The calls are words filed in the database; no cut-off is given here.
Key:
ECV-304 = test: Cytotoxicity in E304 cells; assay type: functional, cell-based; details: Homo sapiens
HFF = test: Cytotoxicity in HFF cells; assay type: functional, cell-based; details: Homo sapiens
[1] = biological target: RNA-directed RNA polymerase (Hepacivirus hominis, UniProt O39930); test: Inhibitory activity against HCV delta 21 NS5b RNA polymerase
Genome polyprotein = Genome polyprotein (Bovine viral diarrhea virus (strain CP7) (BVDV) (Mucosal diseasevirus), UniProt Q96662); test: Inhibitory activity against BVDV NS5b RNA polymerase; parameters: species or system Bovine viral diarrhea virus 1
Chain of Genome polyprotein (Q96662 3189-3907 limits assumed): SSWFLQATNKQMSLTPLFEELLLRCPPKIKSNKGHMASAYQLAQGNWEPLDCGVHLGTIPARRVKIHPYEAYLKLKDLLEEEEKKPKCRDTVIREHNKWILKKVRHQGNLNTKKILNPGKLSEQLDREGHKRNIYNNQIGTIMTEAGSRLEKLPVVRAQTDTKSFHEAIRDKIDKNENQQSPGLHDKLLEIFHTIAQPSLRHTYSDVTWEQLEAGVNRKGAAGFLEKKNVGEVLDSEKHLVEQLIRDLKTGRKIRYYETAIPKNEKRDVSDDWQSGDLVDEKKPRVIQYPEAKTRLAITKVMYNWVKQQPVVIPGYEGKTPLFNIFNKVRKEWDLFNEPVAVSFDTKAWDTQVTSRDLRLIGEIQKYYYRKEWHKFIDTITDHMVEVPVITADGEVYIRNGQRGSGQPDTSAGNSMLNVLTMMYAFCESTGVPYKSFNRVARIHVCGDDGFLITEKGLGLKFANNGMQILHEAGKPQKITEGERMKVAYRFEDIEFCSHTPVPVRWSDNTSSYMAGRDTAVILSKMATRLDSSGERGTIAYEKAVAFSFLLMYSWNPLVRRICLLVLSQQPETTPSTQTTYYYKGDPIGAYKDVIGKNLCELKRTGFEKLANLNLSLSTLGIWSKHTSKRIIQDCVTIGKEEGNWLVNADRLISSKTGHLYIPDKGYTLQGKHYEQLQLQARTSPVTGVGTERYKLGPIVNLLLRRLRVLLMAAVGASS

[2] = biological target: T1, Avian myoblastosis virus polyprotein II (Avian myeloblastosis virus, UniProt Q86831); test: Inhibitory activity against AMV Reverse transcriptase
T1 sequence (Q86831 whole entry): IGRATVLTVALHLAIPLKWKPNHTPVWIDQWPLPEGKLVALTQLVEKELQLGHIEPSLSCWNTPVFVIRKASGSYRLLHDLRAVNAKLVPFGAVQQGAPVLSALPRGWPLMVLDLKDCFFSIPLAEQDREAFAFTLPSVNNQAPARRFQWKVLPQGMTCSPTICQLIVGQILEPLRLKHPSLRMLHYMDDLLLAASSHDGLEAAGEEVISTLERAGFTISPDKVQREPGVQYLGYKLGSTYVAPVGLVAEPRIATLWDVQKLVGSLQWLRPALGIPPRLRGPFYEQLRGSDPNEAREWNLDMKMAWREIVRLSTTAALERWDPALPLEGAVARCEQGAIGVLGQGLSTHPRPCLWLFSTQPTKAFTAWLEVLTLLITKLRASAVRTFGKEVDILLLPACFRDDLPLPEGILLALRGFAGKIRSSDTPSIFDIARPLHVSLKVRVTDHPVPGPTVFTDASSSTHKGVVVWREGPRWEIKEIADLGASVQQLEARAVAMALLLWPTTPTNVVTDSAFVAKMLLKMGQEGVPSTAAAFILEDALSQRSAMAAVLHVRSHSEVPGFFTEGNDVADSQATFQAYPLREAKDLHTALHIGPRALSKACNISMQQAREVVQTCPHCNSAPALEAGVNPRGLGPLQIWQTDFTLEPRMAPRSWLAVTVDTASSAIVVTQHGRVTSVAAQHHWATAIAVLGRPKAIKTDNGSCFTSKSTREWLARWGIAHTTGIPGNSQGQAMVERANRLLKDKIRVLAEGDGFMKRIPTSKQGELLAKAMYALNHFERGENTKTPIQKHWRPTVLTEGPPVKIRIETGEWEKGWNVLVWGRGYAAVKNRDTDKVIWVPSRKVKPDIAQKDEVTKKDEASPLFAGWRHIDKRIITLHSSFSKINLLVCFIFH

[3] = AUC(0-8h) in rat at 4.1 mg/kg, po; assay type: ADME, organism-based; parameters: time < 8 hr, dose 4.1 mg/kg, route oral; details: Sprague-Dawley, plasma
Tubulin (Homo sapiens) = Tubulin (Homo sapiens) (UniProt P68371+Q9H4B7+P0DPH7+P68366+Q13509+Q71U36+P04350+Q3ZCM7+P07437+P68363+Q9BQE3+Q6PEY2+Q13885+Q9BVA1+Q9BUF5); test: Effect on tubulin polymerization; assay type: functional
[4] = Half life in rat at 0.16 mg/kg, iv; assay type: ADME, organism-based; parameters: dose 0.16 mg/kg, route intravenous; details: Sprague-Dawley, in vivo
Homo sapiens = organism: Homo sapiens; test: Inhibition of human Caspase (caspase 1, caspase 3, caspase 6, caspase 7, caspase 8)
[5] = biological target: Aldo-keto reductase family 1 member B1 (Homo sapiens) (UniProt P15121); test: Inhibition of aldose reductase
[6] = Plasma clearance in rat at 0.16 mg/kg, iv; assay type: ADME, organism-based; parameters: dose 0.16 mg/kg, route intravenous; details: Sprague-Dawley
[7] = Tmax in rat at 4.1 mg/kg, po; assay type: ADME, organism-based; parameters: dose 4.1 mg/kg, route oral; details: Sprague-Dawley, in vivo
[8] = Cmax in rat at 4.1 mg/kg, po; assay type: ADME, organism-based; parameters: dose 4.1 mg/kg, route oral; details: Sprague-Dawley, in vivo
[9] = Volume of distribution in rat at 0.16 mg/kg, iv; assay type: ADME, organism-based; parameters: dose 0.16 mg/kg, route intravenous; details: Sprague-Dawley, in vivo, read-out: Vdss
[10] = Inhibition of Calpain
[11] = biological target: Cathepsin B (Homo sapiens) (UniProt P07858); test: Inhibition of Cathepsin B
[12] = Cmax in rat at 4.3 mg/kg, po; assay type: ADME, organism-based; parameters: dose 4.3 mg/kg, route oral; details: Sprague-Dawley, in vivo
[13] = Volume of distribution in rat at 0.86 mg/kg, iv; assay type: ADME, organism-based; parameters: dose 0.86 mg/kg, route intravenous; details: Sprague-Dawley, in vivo, read-out: Vdss
[14] = AUC(0-8h) in rat at 4.3 mg/kg, po; assay type: ADME, organism-based; parameters: time < 8 hr, dose 4.3 mg/kg, route oral; details: Sprague-Dawley, plasma
[15] = Tmax in rat at 4.3 mg/kg, po; assay type: ADME, organism-based; parameters: dose 4.3 mg/kg, route oral; details: Sprague-Dawley, in vivo
[16] = Plasma clearance in rat at 0.86 mg/kg, iv; assay type: ADME, organism-based; parameters: dose 0.86 mg/kg, route intravenous; details: Sprague-Dawley
[17] = Half life in rat at 0.86 mg/kg, iv; assay type: ADME, organism-based; parameters: dose 0.86 mg/kg, route intravenous; details: Sprague-Dawley, in vivo

Chain of RNA-directed RNA polymerase (O39930 whole entry): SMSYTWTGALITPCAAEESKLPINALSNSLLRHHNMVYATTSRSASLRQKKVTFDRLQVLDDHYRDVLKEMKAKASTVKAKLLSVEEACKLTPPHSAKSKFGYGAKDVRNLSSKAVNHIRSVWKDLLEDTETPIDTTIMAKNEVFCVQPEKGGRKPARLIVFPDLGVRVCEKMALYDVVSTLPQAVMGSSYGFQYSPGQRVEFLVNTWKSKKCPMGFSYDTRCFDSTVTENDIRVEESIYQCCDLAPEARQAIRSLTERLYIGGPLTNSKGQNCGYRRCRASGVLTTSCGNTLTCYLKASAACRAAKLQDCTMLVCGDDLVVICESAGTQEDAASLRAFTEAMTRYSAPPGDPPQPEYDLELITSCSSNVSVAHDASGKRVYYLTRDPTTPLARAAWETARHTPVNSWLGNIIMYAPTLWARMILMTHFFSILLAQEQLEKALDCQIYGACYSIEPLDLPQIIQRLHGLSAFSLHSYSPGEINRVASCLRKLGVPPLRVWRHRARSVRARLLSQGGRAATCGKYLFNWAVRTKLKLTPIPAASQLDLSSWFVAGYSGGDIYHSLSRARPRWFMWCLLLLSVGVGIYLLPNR

Structure (SMILES) | IC50 (ECV-304) | IC50 (HFF) | IC50 [1] | further results
N#Cc1ccc(/C=C2\SC(=S)N(NS(=O)(=O)c3ccccc3)C2=O)cc1 | > 50 µM | > 100 µM | 0.9 µM | 
O=C1/C(=C/c2cccnc2)SC(=S)N1NS(=O)(=O)c1ccccc1 | > 50 µM | > 100 µM | 15 µM | 
N#Cc1ccc(/C=C2\SC(=S)N(N)C2=O)cc1 |  |  | 7 µM | 
O=C1/C(=C/c2cc(F)c(F)c(F)c2)SC(=S)N1NS(=O)(=O)c1ccccc1 | > 50 µM | > 100 µM | 1 µM | 
CCCCS(=O)(=O)NN1C(=O)/C(=C/c2ccc(Cl)c(Cl)c2)SC1=S |  |  | 0.7 µM | 
O=S(=O)(NN1C(=S)SC(Cc2ccc(Cl)c(Cl)c2)C1O)c1ccccc1 (stereo unspecified) |  |  | 27 µM | 
O=C1/C(=C/c2ccc3c(c2)OCO3)SC(=S)N1NS(=O)(=O)c1ccccc1 | > 50 µM | > 100 µM | 15 µM | 
COc1ccc(/C=C2\SC(=S)N(NS(=O)(=O)c3ccccc3)C2=O)cc1 | > 50 µM | > 100 µM | 5 µM | 
NN1C(=O)/C(=C/c2ccc(Cl)cc2)SC1=S |  |  | 16 µM | 
CN(C)c1ccc(/C=C2\SC(=S)N(N)C2=O)cc1 |  |  | > 30 µM | 
O=C1C(Cc2ccc(Cl)c(Cl)c2)SC(=S)N1NS(=O)(=O)c1ccccc1 (stereo unspecified) |  |  | 11 µM | 
NN1C(=O)/C(=C/c2ccccc2)SC1=S |  |  | > 30 µM | 
C/C(=C1/SC(=S)N(NS(=O)(=O)c2ccccc2)C1=O)c1ccc(Cl)c(Cl)c1 |  |  | 0.6 µM | 
O=C1/C(=C/c2ccc(Cl)cc2)SC(=S)N1NS(=O)(=O)c1ccccc1 |  |  | 1.5 µM | IC50 (Genome polyprotein): > 30 µM; IC50 [2]: > 30 µM
O=C1NC(=S)S/C1=C\c1ccc([N+](=O)[O-])cc1 |  |  | 22 µM | 
O=C1/C(=C/c2ccc(F)cc2)SC(=S)N1NS(=O)(=O)c1ccccc1 | > 50 µM | > 100 µM | 1 µM | 
O=C1/C(=C/c2ccccc2)SC(=S)N1NS(=O)(=O)c1ccccc1 | > 50 µM | > 100 µM | 30 µM | 
O=C1/C(=C/c2ccc(Br)cc2)SC(=S)N1NS(=O)(=O)c1ccccc1 | > 50 µM | > 100 µM | 0.7 µM | 
O=C1/C(=C/c2ccc(Cl)c(F)c2)SC(=S)N1NS(=O)(=O)c1ccccc1 | > 50 µM | > 100 µM | 1 µM | 
O=C1/C(=C/c2ccccc2F)SC(=S)N1NS(=O)(=O)c1ccccc1 | > 50 µM | > 100 µM | 6.5 µM | 
O=C1/C(=C/c2ccc(Cl)c(Cl)c2)SC(=S)N1NS(=O)(=O)c1ccccc1 | > 50 µM | > 100 µM | 0.2 µM | AUC(0-t) at 8 h [3]: 25500 ng·h/mL; Activity (Tubulin (Homo sapiens)): inactive; half-life [4]: 9.2 h; Activity (Homo sapiens): inactive; Activity [5]: inactive; clearance [6]: 0.125 mL/min/kg; Tmax [7]: 3.3 h; Cmax [8]: 3740 ng/mL; Vd [9]: 0.09 L/kg; Activity [10]: inactive; Activity [11]: inactive
CN1C(=O)/C(=C/c2ccc([N+](=O)[O-])cc2)SC1=S |  |  | 30 µM | 
O=C1/C(=C/c2ccc(Cl)c(Cl)c2)SC(=S)N1NS(=O)(=O)c1cccs1 | > 50 µM | > 100 µM | 0.2 µM | Cmax [12]: 3970 ng/mL; Vd [13]: 0.7 L/kg; AUC(0-t) at 8 h [14]: 25600 ng·h/mL; Tmax [15]: 1.7 h; clearance [16]: 2.83 mL/min/kg; half-life [17]: 3.3 h
COc1cccc(/C=C2\SC(=S)N(NS(=O)(=O)c3ccccc3)C2=O)c1 | > 50 µM | > 100 µM | 5 µM | 

Structure (SMILES) | IC50 (ECV-304) | IC50 (HFF) | IC50 [1] | further results
O=C1/C(=C/c2cc(F)ccc2F)SC(=S)N1NS(=O)(=O)c1ccccc1 | > 50 µM | > 100 µM | 1.7 µM | 
O=C1/C(=C/c2ccc(Cl)cc2)SC(=S)N1Cc1ccccc1 |  |  | > 30 µM | 
NN1C(=O)/C(=C/c2ccc(F)cc2)SC1=S |  |  | 7 µM | 
NN1C(=O)/C(=C/c2ccc([N+](=O)[O-])cc2)SC1=S |  |  | 1 µM | 
O=C(NN1C(=O)/C(=C/c2ccc(Cl)cc2)SC1=S)c1ccccc1 |  |  | > 30 µM | 
O=C1/C(=C/c2ccc(F)c(F)c2F)SC(=S)N1NS(=O)(=O)c1ccccc1 | > 50 µM | > 100 µM | 1.9 µM | 
O=C1/C(=C/c2ccc(-c3cc(C(F)(F)F)ccc3Cl)o2)SC(=S)N1NS(=O)(=O)c1ccccc1 |  |  | 0.1 µM | 
Cc1cccc(/C=C2\SC(=S)N(NS(=O)(=O)c3ccccc3)C2=O)c1 | > 50 µM | > 100 µM | 25 µM | 
O=C1/C(=C/c2ccc(Br)c(Br)c2)SC(=S)N1NS(=O)(=O)c1ccccc1 | > 50 µM | > 100 µM | 0.2 µM | 
CCN1C(=O)/C(=C/c2ccc(Cl)cc2)SC1=S |  |  | > 30 µM | 
O=C1NC(=S)S/C1=C\c1ccc(Cl)cc1 |  |  | > 30 µM | 
CN1C(=O)/C(=C/c2ccc(Cl)cc2)SC1=S |  |  | > 30 µM | 
O=C1/C(=C/c2ccc(C(F)(F)F)cc2)SC(=S)N1NS(=O)(=O)c1ccccc1 | > 50 µM | > 100 µM | 1 µM | 
CS(=O)(=O)NN1C(=O)/C(=C/c2ccc(Cl)c(Cl)c2)SC1=S |  |  | 2 µM | 
O=C1/C(=C/c2ccc([N+](=O)[O-])cc2)SC(=S)N1NS(=O)(=O)c1ccccc1 | > 50 µM | > 100 µM | 2 µM | 
Cc1ccc(/C=C2\SC(=S)N(NS(=O)(=O)c3ccccc3)C2=O)cc1 | > 50 µM | > 100 µM | 10 µM | 
O=C1/C(=C/c2ccc(F)cc2F)SC(=S)N1NS(=O)(=O)c1ccccc1 | > 50 µM | > 100 µM | 3 µM | 
COc1ccc(/C=C2\SC(=S)N(N)C2=O)cc1 |  |  | > 30 µM | 
Cc1ccc(/C=C2\SC(=S)N(N)C2=O)cc1 |  |  | > 30 µM | 
O=C1/C(=C/c2cc(F)c(F)cc2F)SC(=S)N1NS(=O)(=O)c1ccccc1 | > 50 µM | > 100 µM | 0.2 µM | 
O=C1/C(=C/c2ccc3ccccc3c2)SC(=S)N1NS(=O)(=O)c1ccccc1 | > 50 µM | > 100 µM | 3 µM | 
CC(/C=C1\SC(=S)N(NS(=O)(=O)c2ccccc2)C1=O)=C\c1ccccc1 | > 50 µM | > 100 µM | 0.2 µM | 
Cc1ccc(/C=C2\SC(=S)N(NS(=O)(=O)c3ccccc3)C2=O)cc1C | > 50 µM | > 100 µM | 8 µM | 
